Experimental data published in patent US20130018193A1, “DEUTERATED PIRFENIDONE” (CONCERT Pharmaceuticals Inc., priority 2007, published 2013).

Columns and labels:
[1] = Pharmacokinetics of Compounds 106 and 108 after intravenous and oral dosing in chimpanzees; assay type: in vivo; settings: chimps; for AUC(0-inf) / clearance / half-life / Cmax: both sexes, plasma, 100 mg each co-dosed; for half-life: 30 minute infusion
Experimental: Chimpanzees (one male and one female for each route of administration) were administered a combination of 100 mg of Compound 106, 100 mg of Compound 108 and 100 mg of pirfenidone in 10% DMI (dimethyl isosorbide), 15% ethanol, 35% PG in distilled water (total volume 150 ml) by either oral or intravenous dosing. Intravenous dosing was performed by infusion over a 30 minute period. Blood samples from the orally dosed chimps were collected just prior to dosing and at 15, 30, 60, 90, 120, 240, 360, 480, 600, 720 and 1440 minutes post-dosing. Blood samples (4.5 ml) from the intravenously dosed chimps were collected just prior to infusion, at 15 and 29.5 minutes after the start of infusion, and then at 6, 15, 30, 45, 60, 120, 240, 360, 480, 600, 720 and 1440 minutes post-infusion. Plasma was isolated and prepared for analysis by mixing 0.1 ml of plasma with 300 μL of indiplon in (50 ng/ml in acetonitrile/water; 90/10; v/v) as an internal standard, vortexing and then centrifuging to remove any precipitated protein.
Plasma samples (10 μl) were injected to a Zorbax SB-C8 (Rapid Resolution) column (2.1×30 mm, 3.5 μm). The initial mobile phase condition was 100% A (water with 0.1% formic acid) and 0% B (acetonitrile with 0.1% formic acid) with a flow rate at 0.75 mL/min. Mobile phase B was allowed to reach 100% in 0.75 minutes and held for 1.0 minute before ramping back to 0% in another 0.1 minute. The overall run time was 3 minutes. The precursor/product ion pairs were set at m/z 186/92, m/z 191/97, m/z 189/95 and m/z 377/293 for detecting pirfenidone, Compound 106, Compound 108 and indiplon, respectively. Plasma concentration data for each compound in each animal was individually fitted to a 2-compartment model using WinNonLin version 5.2 (PK Model #9) with weighting of 1/y.

[2] = Pharmacokinetics of Compound 106 after intravenous and oral dosing in rats; assay type: in vivo, Male Sprague-Dawley rats; settings: for half-life / AUC(0-inf): male, Sprague-Dawley, rat, plasma; for half-life: 8 mg/kg co-dosed with pirfenidone; for AUC(0-inf): 8 mg/kg co-dosed
Experimental: Male Sprague-Dawley rats (3 for each route of administration) were administered a combination of 8 mg/kg of Compound 106 and 8 mg/kg of pirfenidone in 10% DMI (dimethyl isosorbide), 15% ethanol, 35% PG in distilled water by either oral or intravenous dosing. Blood samples from the dosed rats were collected prior to dosing and at 15, 30, 45, 60, 75, 90, 120, 240, and 360 minutes post-dosing. Plasma was isolated and prepared for analysis by mixing 0.1 ml of plasma in an Eppendorf tube with 20 μL methanol and 500 μL of quetiapine (50 ng/ml as an internal standard), vortexing for 1 minute and then centrifuging at 15,000 rpm for 5 minutes to remove any cellular debris. Plasma samples were analyzed by LC-MS/MS.
LC was performed using an Agilent (Agilent Technologies Inc. USA) liquid chromatograph equipped with an isocratic pump (1100 series), an autosampler (1100 series) and a degasser (1100 series). Plasma samples (2 μL) were run at 25° C. on a Phenomenex Gemini, C18, 5 μm, (50 mm×2.0 mm) column using 0.1% formic acid:methanol (30:70) as the mobile phase with an elution rate of 300 μL/min.
Mass spectrometric analysis was performed on plasma samples (2 μL) prepared as set forth above using an API3000 (triple-quadrupole) instrument from AB Inc (Canada) with an ESI interface. The data acquisition and control system were created using Analyst 1.4 software from ABI Inc.

[3] = Pharmacokinetics of Compound 108 and 109 after intravenous and oral dosing in rats; assay type: in vivo, Male Sprague-Dawley rats; settings: 8 mg/kg co-dosed with 8 mg/kg pirfenidone; for % Change compared to Pirfenidone, AUC0-∞ / % Change compared to Pirfenidone, Clearance / % Change compared to Pirfenidone, Half-life: IV dosing; for % Change compared to Pirfenidone, Cmax: oral dosing

AUC(0-inf) ([1]; IV dosing (Avg))	clearance ([1]; IV dosing (Avg))	half-life ([1]; IV dosing (Avg))	AUC(0-inf) ([1]; oral dosing (Avg))	Cmax ([1]; oral dosing (Avg))	increase in AUC as compared to pirfenidone ([1]; intravenous administration)	increase in half-life as compared to pirfenidone ([1]; intravenous administration)	increase in AUC as compared to pirfenidone ([1]; oral dosing)	increase in Cmax as compared to pirfenidone ([1]; oral dosing)	increase in AUC as compared to pirfenidone ([2]; intravenous administration)	increase in half-life as compared to pirfenidone ([2]; intravenous administration)	half-life ([2]; IV dosing)	AUC(0-inf) ([2]; IV dosing)	AUC(0-inf) ([2]; oral dosing)	increase in AUC as compared to pirfenidone ([2]; oral dosing)	% Change compared to Pirfenidone, AUC0-∞ [3]	% Change compared to Pirfenidone, Clearance [3]	% Change compared to Pirfenidone, Half-life [3]	% Change compared to Pirfenidone, Cmax [3]	SMILES
6900 ng·h/mL	4.37 mL/min/kg	1.4 h	1260 ng·h/mL	340 ng/mL	~50%	greater than 10%	greater than 50%	greater than 50%	72%	62%	1.2 h	20100 ng·h/mL	13800 ng·h/mL	75%	–	–	–	–	[2H]c1cc(C([2H])([2H])[2H])c([2H])n(-c2ccccc2)c1=O [Compound 106, 3,6-Dideutero-5-(methyl-d3)-1-phenylpyridin-2(1H)-one]
7000 ng·h/mL	4.58 mL/min/kg	1.5 h	1350 ng·h/mL	360 ng/mL	~50%	greater than 20%	~60%	~60%	–	–	–	–	–	–	+42%	−29%	+37%	+31%	[2H]C([2H])([2H])c1ccc(=O)n(-c2ccccc2)c1 [Compound 108, 5-(Methyl-d3)-1-phenylpyridin-2(1H)-one]
–	–	–	–	–	–	–	–	–	–	–	–	–	–	–	+29%	−23%	+41%	+19%	[2H]c1c([2H])c([2H])c(-n2cc(C([2H])([2H])[2H])ccc2=O)c([2H])c1[2H] [Compound 109]
4800 ng·h/mL	6.57 mL/min/kg	1.2 h	830 ng·h/mL	230 ng/mL	–	–	–	–	–	–	0.74 h	11600 ng·h/mL	7910 ng·h/mL	–	–	–	–	–	Cc1ccc(=O)n(-c2ccccc2)c1 [Pirfenidone, 5-methyl-1-phenylpyridin-2(1H)-one]
